{
  "source": "patent US20260022142A1",
  "about": "“MACROCYCLIC IMMUNOMODULATORS” (Bristol-Myers Squibb Company, priority 2022, published 2026)",
  "target": "T1, PD-1/PD-L1 interaction (PE-labeled human PD-L1-Ig binding to Jurkat cell line over-expressing human PD-1) (Homo sapiens, UniProt Q15116)",
  "T1 construct": "expressed in transfected cells; host or cells: Jurkat",
  "T1 sequence (Q15116 25-288)": "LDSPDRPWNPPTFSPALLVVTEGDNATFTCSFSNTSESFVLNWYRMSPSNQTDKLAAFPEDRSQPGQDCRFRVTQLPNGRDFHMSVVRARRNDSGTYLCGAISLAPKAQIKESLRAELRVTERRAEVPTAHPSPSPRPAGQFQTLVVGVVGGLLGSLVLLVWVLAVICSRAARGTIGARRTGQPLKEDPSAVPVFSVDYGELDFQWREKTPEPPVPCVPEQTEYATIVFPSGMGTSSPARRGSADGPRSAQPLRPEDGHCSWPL",
  "experiment": "Jurkat-PD-1 Cell Binding High-Content Screening Assay (CBA)",
  "format": "cell-based",
  "settings": "Jurkat cell line over-expressing human PD-1; PE-labeled PD-L1-Ig 20 nM final; read-out: Jurkat hPD1-PDL1 IC50",
  "outline": "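Jurkat cells stably over-expressing human PD-1 were seeded in DMEM with 10% fetal calf serum and pre-incubated with compound for 2 h at 37° C. PE-labeled human PD-L1-Ig was then added at 20 nM final for 1 hour, after which cells were fixed with paraformaldehyde, Hoechst-stained and imaged by high-content microscopy.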",
  "note": "Bridge positions count the residues as written; N and C are the ends. Square brackets hold non-standard residues; d marks the D form. Peptide text beside a SMILES is read from it. * marks the point of attachment. ξ: configuration not given here. Bip = N[C@@H](Cc1ccc(-c2ccccc2)cc1)C(=O)O; Cha = N[C@@H](CC1CCCCC1)C(=O)O; Thr(3ξ) = CC(O)[C@H](N)C(=O)O; Carboxymethyl = O=C(O)C*; Orn = NCCC[C@H](N)C(=O)O; Aun = NCCCCCCCCCCC(=O)O; Dab = NCC[C@H](N)C(=O)O; Dap = NC[C@H](N)C(=O)O",
  "data": [
    {"smiles": "CC(C)C[C@H]1NC(=O)[C@H](CCCN)NC(=O)[C@H](Cc2ccc(O)cc2)NC(=O)[C@H](Cc2ccc(-c3ccccc3)cc2)NC(=O)[C@H](C(C)C)NC(=O)[C@H](Cc2c[nH]c3ccccc23)NC(=O)[C@H](CC(=O)O)NC(=O)[C@H](Cc2ccc(OCC(=O)O)cc2)NC(=O)[C@H](C(C)O)NC(=O)CSC[C@@H](C(=O)N[C@@H](CCN)C(=O)NCCCCCCCCCCC(=O)O)NC(=O)[C@H](CN)NC(=O)[C@H](C(C)O)NC(=O)[C@H](CC2CCCCC2)NC(=O)[C@H](CCN)NC1=O", "note": "(stereo partly drawn) [Compound 3667] ({CH2CO}-[Thr(3ξ)]Y(Carboxymethyl)DWV[Bip]Y[Orn][dL][Dab][Cha][Thr(3ξ)][Dap]C[Dab][Aun]-OH; thioether N-14)", "values": [
      {"measurement": "IC50", "value": 0.0374, "unit": "µM"}
    ]},
    {"smiles": "CC(C)C[C@H]1NC(=O)[C@H](CCCN)NC(=O)[C@H](Cc2ccc(O)cc2)NC(=O)[C@H](Cc2ccc(-c3ccccc3)cc2)NC(=O)[C@H](C(C)C)NC(=O)[C@H](Cc2c[nH]c3ccccc23)NC(=O)[C@H](CC(=O)O)NC(=O)[C@H](Cc2ccc(OCC(=O)O)cc2)NC(=O)[C@H](C(C)O)NC(=O)CSC[C@@H](C(=O)N[C@@H](CCN)C(=O)NCCCCCCCCCCC(=O)O)NC(=O)[C@H](CCCCN)NC(=O)[C@H](C(C)O)NC(=O)[C@H](CC2CCCCC2)NC(=O)[C@H](CCN)NC1=O", "note": "(stereo partly drawn) [Compound 3668] ({CH2CO}-[Thr(3ξ)]Y(Carboxymethyl)DWV[Bip]Y[Orn][dL][Dab][Cha][Thr(3ξ)]KC[Dab][Aun]-OH; thioether N-14)", "values": [
      {"measurement": "IC50", "value": 0.0783, "unit": "µM"}
    ]},
    {"smiles": "CC(C)C[C@H]1NC(=O)[C@H](CCCN)NC(=O)[C@H](Cc2ccc(O)cc2)NC(=O)[C@H](Cc2ccc(-c3ccccc3)cc2)NC(=O)[C@H](Cc2ccc(O)cc2)NC(=O)[C@H](Cc2c[nH]c3ccccc23)NC(=O)[C@H](CC(=O)O)NC(=O)[C@H](Cc2ccc(OCC(=O)O)cc2)NC(=O)[C@H](C(C)O)NC(=O)CSC[C@@H](C(=O)N[C@@H](CCN)C(=O)NCCCCCCCCCCC(=O)O)NC(=O)[C@H](CN)NC(=O)[C@H](C(C)O)NC(=O)[C@H](CC2CCCCC2)NC(=O)[C@H](CCN)NC1=O", "note": "(stereo partly drawn) [Compound 3669] ({CH2CO}-[Thr(3ξ)]Y(Carboxymethyl)DWY[Bip]Y[Orn][dL][Dab][Cha][Thr(3ξ)][Dap]C[Dab][Aun]-OH; thioether N-14)", "values": [
      {"measurement": "IC50", "value": 0.152, "unit": "µM"}
    ]},
    {"smiles": "CC(C)C[C@H]1NC(=O)[C@H](CCCN)NC(=O)[C@H](Cc2ccc(O)cc2)NC(=O)[C@H](Cc2ccc(-c3ccccc3)cc2)NC(=O)[C@H](Cc2ccc(O)cc2)NC(=O)[C@H](Cc2c[nH]c3ccccc23)NC(=O)[C@H](CC(=O)O)NC(=O)[C@H](Cc2ccc(OCC(=O)O)cc2)NC(=O)[C@H](C(C)O)NC(=O)CSC[C@@H](C(=O)N[C@@H](CCN)C(=O)NCCCCCCCCCCC(=O)O)NC(=O)[C@H](CCCCN)NC(=O)[C@H](C(C)O)NC(=O)[C@H](CC2CCCCC2)NC(=O)[C@H](CCN)NC1=O", "note": "(stereo partly drawn) [Compound 3670] ({CH2CO}-[Thr(3ξ)]Y(Carboxymethyl)DWY[Bip]Y[Orn][dL][Dab][Cha][Thr(3ξ)]KC[Dab][Aun]-OH; thioether N-14)", "values": [
      {"measurement": "IC50", "value": 0.0642, "unit": "µM"}
    ]},
    {"smiles": "CC(C)C[C@@H]1NC(=O)[C@H](Cc2c[nH]c3ccccc23)NC(=O)[C@H](CC(=O)O)NC(=O)[C@H](Cc2ccc(OCC(=O)O)cc2)NC(=O)[C@H](C(C)O)NC(=O)CSC[C@@H](C(=O)N[C@@H](CCN)C(=O)NCCCCCCCCCCC(=O)O)NC(=O)[C@H](CN)NC(=O)[C@H](C(C)O)NC(=O)[C@H](CC2CCCCC2)NC(=O)[C@H](CCN)NC(=O)[C@@H](CC(C)C)NC(=O)[C@H](CCCN)NC(=O)[C@H](Cc2ccc(O)cc2)NC(=O)[C@H](Cc2ccc(-c3ccccc3)cc2)NC1=O", "note": "(stereo partly drawn) [Compound 3671] ({CH2CO}-[Thr(3ξ)]Y(Carboxymethyl)DWL[Bip]Y[Orn][dL][Dab][Cha][Thr(3ξ)][Dap]C[Dab][Aun]-OH; thioether N-14)", "values": [
      {"measurement": "IC50", "value": 0.105, "unit": "µM"}
    ]}
  ]
}
